Structures are written as SMILES. Numbers after ± are expanded uncertainties.

For the data set the following is noted: 101 kPa, Liquid.

As for `C1CCCCC1` [cyclohexane], the mass density – broadly, mass per unit of volume – was 769.1 ± 0.97 kg/m3 (303.15 K), 759.6 ± 1 kg/m3 (313.15 K), 749.98 ± 1 kg/m3 (323.15 K) and 740.23 ± 1.1 kg/m3 (333.15 K). Besides, the viscosity (usually the resistance of a fluid to flow) is given as 0.821 ± 0.021 mPa·s (303.15 K), 0.696 ± 0.018 mPa·s (313.15 K), 0.598 ± 0.016 mPa·s (323.15 K) and 0.52 ± 0.014 mPa·s (333.15 K).
In the case of `Cc1ccccc1` [toluene], the mass density (303.15 K) came to 858.32 ± 0.76 kg/m3; the mass density (313.15 K) was found to be 848.92 ± 0.79 kg/m3; the mass density (323.15 K) came out at 839.45 ± 0.82 kg/m3; the mass density (333.15 K) is on record as 829.93 ± 0.85 kg/m3; the mass density (343.15 K) is 820.3 ± 0.88 kg/m3; the mass density (353.15 K) amounted to 810.54 ± 0.91 kg/m3. The viscosity reads like this: (303.15 K) 0.525 ± 0.015 mPa·s; (313.15 K) 0.47 ± 0.014 mPa·s; (323.15 K) 0.423 ± 0.013 mPa·s; (333.15 K) 0.385 ± 0.012 mPa·s; (343.15 K) 0.35 ± 0.012 mPa·s; (353.15 K) 0.323 ± 0.011 mPa·s.

Source of the values: the NIST ThermoML archive (doi:10.1016/j.jct.2006.06.005).
